Active and inactive are the calls of the source.
Assays:
[1] = biological target: Sphingosine 1-phosphate receptor 4 (Homo sapiens, UniProt O95977); experiment: Fluorescence dose response cell-based high throughput screening assay for antagonists of the Sphingosine 1-Phosphate Receptor 4 (S1P4). [Related pubchem assays: 1524 (Confirmation in triplicates.), 1510 (Primary screen.)]; assay type: functional
[2] = biological target: Sphingosine 1-phosphate receptor 1 (Homo sapiens, UniProt P21453); assay type: functional;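 also: Tango beta-arrestin reporter U2OS cells stimulated with S1P near its EC80; inhibitor potency meaning antagonism of receptor activation by the natural agonist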
Sphingosine 1-phosphate receptor 1, sequence (P21453 whole entry): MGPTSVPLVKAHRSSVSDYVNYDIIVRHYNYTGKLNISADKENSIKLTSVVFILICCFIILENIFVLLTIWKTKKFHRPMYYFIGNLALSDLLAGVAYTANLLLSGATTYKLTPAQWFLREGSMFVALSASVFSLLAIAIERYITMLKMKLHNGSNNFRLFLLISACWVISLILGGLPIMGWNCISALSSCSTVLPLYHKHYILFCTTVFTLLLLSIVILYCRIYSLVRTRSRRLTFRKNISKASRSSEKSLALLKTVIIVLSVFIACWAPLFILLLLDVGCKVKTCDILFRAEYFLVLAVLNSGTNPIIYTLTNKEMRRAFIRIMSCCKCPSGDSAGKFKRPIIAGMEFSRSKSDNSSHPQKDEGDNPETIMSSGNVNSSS

[3] = cytotoxicity in HEK-293T cells, dose response, cytotoxicity control for TCR NF-kB inhibitor project, luminescence, T-cell screen hits (AID 489026); assay type: functional, cell-based;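 also: cells exposed to compound about 14 hours before the viability readout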
[4] = biological target: Beta Lactamase (Pseudomonas aeruginosa, UniProt Q932Y6); experiment: beta-lactamase reporter inhibitor potency, dose response, artefact control for TLR9-MyD88 binding inhibitor project, BLA reporter cells, FRET fluorescence (AID 588341); assay type: cell-based;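 also: cell based assay in CHO-K1 cells stably expressing beta-lactamase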
Beta Lactamase, sequence (Q932Y6 whole entry): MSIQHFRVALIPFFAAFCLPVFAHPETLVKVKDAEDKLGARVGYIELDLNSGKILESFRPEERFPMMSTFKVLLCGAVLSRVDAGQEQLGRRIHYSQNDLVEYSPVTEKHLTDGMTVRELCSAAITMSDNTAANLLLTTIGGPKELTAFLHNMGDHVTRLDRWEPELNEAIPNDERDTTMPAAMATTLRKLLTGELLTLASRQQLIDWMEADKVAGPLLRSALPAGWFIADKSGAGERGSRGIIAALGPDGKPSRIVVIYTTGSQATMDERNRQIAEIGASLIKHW

[5] = control 3'UTR Renilla luciferase suppression, dose response, counter-screen for Shn3 inhibitor project, cell-based, Clone20-Shn3RL, cherry-picked (AID 624133); assay type: functional
[6] = biological target: Photoreceptor-specific nuclear receptor (Homo sapiens, UniProt Q9Y5X4); assay type: functional, cell-based;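 also: CHO-S cells with Gal4-NCOR and VP16-NR2E3 two-hybrid luciferase reporter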
Photoreceptor-specific nuclear receptor, sequence (Q9Y5X4 whole entry, the tested form may be a part): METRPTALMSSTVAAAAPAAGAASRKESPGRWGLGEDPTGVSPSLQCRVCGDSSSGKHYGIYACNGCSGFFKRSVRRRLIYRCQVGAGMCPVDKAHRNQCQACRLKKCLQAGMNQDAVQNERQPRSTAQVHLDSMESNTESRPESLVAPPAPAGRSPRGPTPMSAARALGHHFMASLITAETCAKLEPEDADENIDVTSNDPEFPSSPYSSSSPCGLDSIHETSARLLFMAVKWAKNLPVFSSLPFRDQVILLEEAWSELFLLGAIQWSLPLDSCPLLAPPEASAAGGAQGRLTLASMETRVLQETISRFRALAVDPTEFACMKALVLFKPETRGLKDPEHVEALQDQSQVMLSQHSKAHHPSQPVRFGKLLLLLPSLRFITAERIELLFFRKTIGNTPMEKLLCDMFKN

[7] = HeLa cell cytotoxicity, dose response, cytotoxicity control for MgcRacGAP inhibitor project (AID 624300); assay type: functional
[8] = biological target: Voltage-gated N-type calcium channel alpha-1B subunit/Amyloid beta A4 precursor protein-binding family A member 1 (Homo sapiens, UniProt Q00975+Q02410); assay type: protein assay
Voltage-gated N-type calcium channel alpha-1B subunit/Amyloid beta A4 precursor protein-binding family A member 1, sequence (Q00975 whole entry): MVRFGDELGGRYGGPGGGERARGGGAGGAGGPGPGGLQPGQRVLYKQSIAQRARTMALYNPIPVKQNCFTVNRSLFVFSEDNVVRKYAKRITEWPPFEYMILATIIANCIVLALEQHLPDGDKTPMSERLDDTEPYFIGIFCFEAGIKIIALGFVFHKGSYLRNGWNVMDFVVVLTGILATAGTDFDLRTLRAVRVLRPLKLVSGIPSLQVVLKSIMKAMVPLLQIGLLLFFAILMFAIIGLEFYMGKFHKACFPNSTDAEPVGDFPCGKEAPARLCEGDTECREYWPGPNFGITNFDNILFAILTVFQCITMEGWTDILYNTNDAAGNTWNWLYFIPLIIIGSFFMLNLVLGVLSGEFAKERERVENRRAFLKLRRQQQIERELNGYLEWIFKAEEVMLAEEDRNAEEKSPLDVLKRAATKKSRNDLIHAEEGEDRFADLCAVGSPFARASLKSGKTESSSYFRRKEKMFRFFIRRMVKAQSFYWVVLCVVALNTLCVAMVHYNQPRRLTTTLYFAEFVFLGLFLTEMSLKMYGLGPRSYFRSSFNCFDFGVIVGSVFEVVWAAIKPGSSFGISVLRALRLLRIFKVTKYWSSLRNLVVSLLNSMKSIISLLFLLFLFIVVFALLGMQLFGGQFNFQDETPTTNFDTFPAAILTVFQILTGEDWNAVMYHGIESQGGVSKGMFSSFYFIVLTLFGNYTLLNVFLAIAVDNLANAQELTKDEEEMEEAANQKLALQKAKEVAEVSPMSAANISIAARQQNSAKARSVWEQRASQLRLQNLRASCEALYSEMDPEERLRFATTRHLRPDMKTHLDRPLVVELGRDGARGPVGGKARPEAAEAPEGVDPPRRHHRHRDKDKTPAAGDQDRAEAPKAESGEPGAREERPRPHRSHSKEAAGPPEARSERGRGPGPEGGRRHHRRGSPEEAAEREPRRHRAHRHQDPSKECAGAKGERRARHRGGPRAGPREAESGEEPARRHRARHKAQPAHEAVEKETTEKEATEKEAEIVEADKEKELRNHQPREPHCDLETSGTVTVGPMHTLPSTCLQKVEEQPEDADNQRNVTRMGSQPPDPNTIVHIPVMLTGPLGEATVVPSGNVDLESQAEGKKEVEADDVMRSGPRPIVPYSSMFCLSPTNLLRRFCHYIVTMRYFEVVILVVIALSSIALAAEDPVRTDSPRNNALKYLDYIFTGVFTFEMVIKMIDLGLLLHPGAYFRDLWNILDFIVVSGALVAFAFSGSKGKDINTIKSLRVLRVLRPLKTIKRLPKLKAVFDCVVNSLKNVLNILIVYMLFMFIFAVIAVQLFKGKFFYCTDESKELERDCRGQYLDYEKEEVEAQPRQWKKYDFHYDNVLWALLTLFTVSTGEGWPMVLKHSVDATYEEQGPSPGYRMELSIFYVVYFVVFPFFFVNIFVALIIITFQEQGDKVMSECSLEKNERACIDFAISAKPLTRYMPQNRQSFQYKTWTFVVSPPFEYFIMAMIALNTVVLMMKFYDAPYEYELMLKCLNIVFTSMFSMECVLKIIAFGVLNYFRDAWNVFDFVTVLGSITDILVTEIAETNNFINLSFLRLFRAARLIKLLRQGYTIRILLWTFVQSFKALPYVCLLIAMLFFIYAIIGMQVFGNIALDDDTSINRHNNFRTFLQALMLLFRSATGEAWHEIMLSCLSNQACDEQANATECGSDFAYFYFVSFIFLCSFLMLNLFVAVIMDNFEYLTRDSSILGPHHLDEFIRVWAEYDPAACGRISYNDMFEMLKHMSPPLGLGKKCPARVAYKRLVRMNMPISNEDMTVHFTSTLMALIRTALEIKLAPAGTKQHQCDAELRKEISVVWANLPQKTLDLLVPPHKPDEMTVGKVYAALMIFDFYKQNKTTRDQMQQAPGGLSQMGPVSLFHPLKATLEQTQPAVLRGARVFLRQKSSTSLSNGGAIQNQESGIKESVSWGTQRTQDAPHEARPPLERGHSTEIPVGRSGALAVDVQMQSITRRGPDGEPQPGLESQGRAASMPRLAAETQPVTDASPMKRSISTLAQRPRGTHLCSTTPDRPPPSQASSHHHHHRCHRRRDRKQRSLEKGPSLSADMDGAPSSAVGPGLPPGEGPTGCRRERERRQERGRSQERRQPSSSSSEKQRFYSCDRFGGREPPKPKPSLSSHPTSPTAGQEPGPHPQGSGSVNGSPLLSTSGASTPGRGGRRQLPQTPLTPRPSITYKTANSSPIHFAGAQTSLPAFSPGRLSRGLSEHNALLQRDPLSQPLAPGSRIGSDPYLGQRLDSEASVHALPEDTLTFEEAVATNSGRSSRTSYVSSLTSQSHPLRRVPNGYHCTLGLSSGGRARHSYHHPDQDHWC
Voltage-gated N-type calcium channel alpha-1B subunit/Amyloid beta A4 precursor protein-binding family A member 1, sequence (Q02410 whole entry): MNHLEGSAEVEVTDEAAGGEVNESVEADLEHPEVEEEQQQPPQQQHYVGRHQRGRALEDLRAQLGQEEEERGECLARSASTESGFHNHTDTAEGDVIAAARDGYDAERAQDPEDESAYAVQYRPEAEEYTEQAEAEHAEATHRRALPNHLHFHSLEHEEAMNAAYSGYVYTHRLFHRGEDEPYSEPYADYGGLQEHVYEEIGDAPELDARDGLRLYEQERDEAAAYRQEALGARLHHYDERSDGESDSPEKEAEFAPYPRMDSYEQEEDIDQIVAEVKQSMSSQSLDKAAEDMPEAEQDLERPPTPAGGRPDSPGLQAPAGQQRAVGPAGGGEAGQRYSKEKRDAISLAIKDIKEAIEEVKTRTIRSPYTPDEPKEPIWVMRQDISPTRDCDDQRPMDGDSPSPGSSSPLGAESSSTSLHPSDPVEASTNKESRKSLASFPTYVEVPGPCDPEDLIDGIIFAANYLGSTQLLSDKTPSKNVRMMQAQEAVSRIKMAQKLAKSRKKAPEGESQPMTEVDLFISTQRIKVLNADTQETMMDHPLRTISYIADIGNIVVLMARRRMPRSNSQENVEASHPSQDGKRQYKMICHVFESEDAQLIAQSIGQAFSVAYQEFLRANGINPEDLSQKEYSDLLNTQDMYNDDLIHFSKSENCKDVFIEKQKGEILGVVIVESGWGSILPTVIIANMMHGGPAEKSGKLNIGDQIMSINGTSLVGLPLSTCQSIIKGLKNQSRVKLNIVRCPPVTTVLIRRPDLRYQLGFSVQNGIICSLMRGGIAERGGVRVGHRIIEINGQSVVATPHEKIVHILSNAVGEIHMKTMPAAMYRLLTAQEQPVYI

[9] = biological target: T1, Mannose-6-phosphate isomerase (Homo sapiens, UniProt P34949); experiment: human PMI inhibitors, high substrate, primary screen, biochemical, fluorescence intensity, high mannose 6-phosphate (AID 1220)
T1 sequence (P34949 whole entry): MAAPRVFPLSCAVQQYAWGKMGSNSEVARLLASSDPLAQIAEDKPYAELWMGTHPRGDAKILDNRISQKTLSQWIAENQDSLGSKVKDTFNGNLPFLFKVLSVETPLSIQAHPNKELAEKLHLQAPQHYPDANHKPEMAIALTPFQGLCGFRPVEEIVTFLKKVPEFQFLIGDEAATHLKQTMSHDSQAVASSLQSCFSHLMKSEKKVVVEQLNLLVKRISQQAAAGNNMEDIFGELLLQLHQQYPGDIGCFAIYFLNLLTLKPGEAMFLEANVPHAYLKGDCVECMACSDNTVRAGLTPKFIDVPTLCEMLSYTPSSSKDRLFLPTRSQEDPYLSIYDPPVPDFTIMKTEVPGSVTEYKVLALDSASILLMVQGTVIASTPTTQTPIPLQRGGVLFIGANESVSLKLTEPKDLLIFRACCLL

[10] = biological target: T2, Hexokinase HKDC1 (Homo sapiens, UniProt Q2TB90); experiment: HKDC1 hexokinase activators, dose response, biochemical, W721R variant (AID 504730); assay type: functional
T2 sequence (Q2TB90 whole entry): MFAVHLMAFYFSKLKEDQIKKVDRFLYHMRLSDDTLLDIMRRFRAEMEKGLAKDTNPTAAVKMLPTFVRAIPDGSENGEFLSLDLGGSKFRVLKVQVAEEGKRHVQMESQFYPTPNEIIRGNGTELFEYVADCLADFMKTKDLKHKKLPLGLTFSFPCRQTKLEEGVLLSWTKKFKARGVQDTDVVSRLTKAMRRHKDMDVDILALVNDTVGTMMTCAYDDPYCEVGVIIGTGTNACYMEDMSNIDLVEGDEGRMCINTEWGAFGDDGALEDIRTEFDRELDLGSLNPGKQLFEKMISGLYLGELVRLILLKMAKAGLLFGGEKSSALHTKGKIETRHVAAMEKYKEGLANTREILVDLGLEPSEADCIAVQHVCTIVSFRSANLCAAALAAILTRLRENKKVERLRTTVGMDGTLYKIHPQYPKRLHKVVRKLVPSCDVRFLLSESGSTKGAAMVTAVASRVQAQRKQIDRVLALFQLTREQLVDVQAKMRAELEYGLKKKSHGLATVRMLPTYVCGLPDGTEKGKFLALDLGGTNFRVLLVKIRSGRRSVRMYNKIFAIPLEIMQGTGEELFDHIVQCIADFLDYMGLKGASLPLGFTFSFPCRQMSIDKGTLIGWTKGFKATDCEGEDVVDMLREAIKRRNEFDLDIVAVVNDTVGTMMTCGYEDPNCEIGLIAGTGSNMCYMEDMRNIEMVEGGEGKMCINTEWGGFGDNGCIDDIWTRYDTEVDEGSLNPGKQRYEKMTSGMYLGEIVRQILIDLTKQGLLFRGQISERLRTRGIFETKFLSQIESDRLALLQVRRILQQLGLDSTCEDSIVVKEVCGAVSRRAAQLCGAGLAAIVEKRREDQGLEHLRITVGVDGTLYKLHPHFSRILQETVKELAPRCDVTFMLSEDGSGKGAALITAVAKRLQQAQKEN

[11] = cytotoxicity toward NIH3T3 fibroblasts, dose response, counter-screen, cell-based, ATP luminescence, mouse fibroblasts (AID 2010); assay type: functional;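 also: cells exposed to compound for about 90 hours before reading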
[12] = biological target: T3, Cysteine protease ATG4B (Homo sapiens, UniProt Q9Y4P1); assay type: functional;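 also: Fluorescence-based dose-response confirmation assay measuring inhibition of ATG4B activity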
T3 sequence (Q9Y4P1 whole entry): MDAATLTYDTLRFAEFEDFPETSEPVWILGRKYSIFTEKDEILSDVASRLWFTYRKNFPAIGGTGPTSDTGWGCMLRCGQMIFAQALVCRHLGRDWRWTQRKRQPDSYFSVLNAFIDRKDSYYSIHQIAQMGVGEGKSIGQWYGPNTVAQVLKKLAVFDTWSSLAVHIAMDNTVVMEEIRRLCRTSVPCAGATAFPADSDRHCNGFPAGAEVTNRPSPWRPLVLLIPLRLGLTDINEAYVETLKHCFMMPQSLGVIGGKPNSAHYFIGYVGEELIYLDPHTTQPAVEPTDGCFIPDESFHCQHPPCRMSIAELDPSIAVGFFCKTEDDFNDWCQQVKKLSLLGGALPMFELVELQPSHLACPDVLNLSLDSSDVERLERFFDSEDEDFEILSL

[13] = CEM21 lymphoblast cell cytotoxicity, dose response, cytotoxicity control for viral fusion inhibitor project, CellTiter-Glo luminescence, cherry-picked (AID 652042); assay type: functional, cell-based;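 also: potency for signal decrease meaning cytotoxicity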
[14] = biological target: Tyrosyl-DNA phosphodiesterase 2 (Homo sapiens, UniProt O95551); experiment: human TDP2 enzyme inhibitors, dose response, biochemical, epi absorbance, IC50 (AID 743297)
Tyrosyl-DNA phosphodiesterase 2, sequence (O95551 whole entry): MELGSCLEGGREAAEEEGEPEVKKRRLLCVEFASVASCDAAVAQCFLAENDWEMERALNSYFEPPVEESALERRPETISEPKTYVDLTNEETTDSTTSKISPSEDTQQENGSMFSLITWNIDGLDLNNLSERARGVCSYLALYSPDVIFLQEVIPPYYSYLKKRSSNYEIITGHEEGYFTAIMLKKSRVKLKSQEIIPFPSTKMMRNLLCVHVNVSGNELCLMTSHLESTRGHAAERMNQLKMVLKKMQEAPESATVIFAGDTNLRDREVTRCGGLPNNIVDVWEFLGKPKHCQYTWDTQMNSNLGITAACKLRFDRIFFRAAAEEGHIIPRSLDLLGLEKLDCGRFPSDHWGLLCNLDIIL

Sphingosine 1-phosphate receptor 4, sequence (O95977 whole entry): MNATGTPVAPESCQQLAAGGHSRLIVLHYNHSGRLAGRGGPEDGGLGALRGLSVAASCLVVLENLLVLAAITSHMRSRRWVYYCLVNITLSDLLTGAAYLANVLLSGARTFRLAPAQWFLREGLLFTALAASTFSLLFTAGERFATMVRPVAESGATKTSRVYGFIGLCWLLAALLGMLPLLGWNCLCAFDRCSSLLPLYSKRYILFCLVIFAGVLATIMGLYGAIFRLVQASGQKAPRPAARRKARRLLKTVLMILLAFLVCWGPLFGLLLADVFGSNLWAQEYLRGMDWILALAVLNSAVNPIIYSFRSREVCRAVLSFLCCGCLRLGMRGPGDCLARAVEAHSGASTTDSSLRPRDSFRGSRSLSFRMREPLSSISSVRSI

## O=C(Nc1ccccc1Cl)/C(Cl)=C(\Cl)[S+]([O-])c1ccccc1 (stereo not given)
[1]
  IC50: 0.541 µM (active)
[2]
  IC50: 10.3 µM (not active)
[3]
  IC50: 61.9 µM (inactive)
[4]
  IC50: > 5.53 µM (active)
[5]
  AC50: 5.77 µM (active)
[6]
  IC50: 2.92 µM (active)
[7]
  CC50: 28.9 µM (active)

## Cc1cc(C)nc(/N=c2/ssnc2Cl)c1
[8]
  IC50: 10.6 µM (active)
[9]
  IC50: 28.8 µM (active)
[10]
  EC50: 43.1 µM (inactive)

## CCCCCCCCCCCCCCCCn1cc[n+](C)c1
[11]; NIH3T3
  EC50: 8.99 µM (active)
[11]; nih3t3
  EC50: 8.81 µM (active)
[12]
  IC50: 4.47 µM (active)
[13]
  AC50: 5.2 µM (active)

## O=C(NC1(O)C(=O)c2ccccc2C1=O)c1ccccc1
[14]
  IC50: 3.27 µM (active)

Reference: ChEMBL document CHEMBL1201862, “PubChem BioAssay data set” (2004)
